Calls of active or inactive are those of the source. No cut-off for these calls is given here.
Key:
[1] = target: Mitogen-activated protein kinase 8 (Homo sapiens) (UniProt P45983); test: JNK1 DiscoveRx kinase panel; settings: Compound concentration 1.0 uM
[2] = target: Discoidin domain-containing receptor 2 (Homo sapiens) (UniProt Q16832); test: DDR2 DiscoveRx kinase panel; settings: Compound concentration 1.0 uM
Rattus norvegicus [3] = species on record: Rattus norvegicus; settings: Compound concentration 10.0 uM
[4] = target: 5-hydroxytryptamine receptor 1B (Homo sapiens) (UniProt P28222); test: Serotonin (5-Hydroxytryptamine) 5-HT1B Eurofins-Panlabs radioligand binding assay; design: ligand concentration 1 nM; settings: Compound concentration 10.0 uM
[5] = target: Tyrosine-protein kinase HCK (Homo sapiens) (UniProt P08631); test: HCK DiscoveRx kinase panel; settings: Compound concentration 1.0 uM
[6] = target: Serine/threonine-protein kinase haspin (Homo sapiens) (UniProt Q8TF76); test: HASPIN DiscoveRx kinase panel; settings: Compound concentration 1.0 uM
[7] = target: BMP-2-inducible protein kinase (Homo sapiens) (UniProt Q9NSY1); test: BIKE DiscoveRx kinase panel; settings: Compound concentration 1.0 uM
[8] = target: Muscarinic acetylcholine receptor M3 (Homo sapiens) (UniProt P20309); settings: Compound concentration 10.0 uM
[9] = target: Activin receptor type-1-like (Homo sapiens) (UniProt P37023); test: ACVRL1 DiscoveRx kinase panel; settings: Compound concentration 1.0 uM
[10] = target: Atypical kinase COQ8A, mitochondrial (Homo sapiens) (UniProt Q8NI60); test: ADCK3 DiscoveRx kinase panel; settings: Compound concentration 1.0 uM
Sequence of Atypical kinase COQ8A, mitochondrial (Homo sapiens) (Q8NI60 163-647 limits assumed): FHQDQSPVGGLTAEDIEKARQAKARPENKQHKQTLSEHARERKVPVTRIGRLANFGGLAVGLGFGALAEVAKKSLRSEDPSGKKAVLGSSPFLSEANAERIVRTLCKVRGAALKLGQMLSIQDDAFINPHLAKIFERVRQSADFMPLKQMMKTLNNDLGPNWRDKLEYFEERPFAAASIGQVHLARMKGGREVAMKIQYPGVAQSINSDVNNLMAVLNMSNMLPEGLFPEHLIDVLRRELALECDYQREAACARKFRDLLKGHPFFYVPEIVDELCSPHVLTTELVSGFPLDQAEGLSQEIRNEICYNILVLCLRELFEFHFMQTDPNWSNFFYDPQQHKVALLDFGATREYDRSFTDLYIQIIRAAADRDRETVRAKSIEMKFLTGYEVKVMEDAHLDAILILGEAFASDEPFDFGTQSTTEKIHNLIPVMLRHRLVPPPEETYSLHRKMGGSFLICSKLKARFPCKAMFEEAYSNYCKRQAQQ

[11] = target: Casein kinase I isoform epsilon (Homo sapiens) (UniProt P49674); test: CSNK1E DiscoveRx kinase panel; settings: Compound concentration 1.0 uM
[12] = target: Citron Rho-interacting kinase (Homo sapiens) (UniProt O14578); test: CIT DiscoveRx kinase panel; settings: Compound concentration 1.0 uM
[13] = target: Cyclin-dependent kinase 4 (Homo sapiens) (UniProt P11802); test: CDK4 DiscoveRx kinase panel; settings: Compound concentration 1.0 uM
Sequence of Cyclin-dependent kinase 4 (Homo sapiens) (P11802 whole entry): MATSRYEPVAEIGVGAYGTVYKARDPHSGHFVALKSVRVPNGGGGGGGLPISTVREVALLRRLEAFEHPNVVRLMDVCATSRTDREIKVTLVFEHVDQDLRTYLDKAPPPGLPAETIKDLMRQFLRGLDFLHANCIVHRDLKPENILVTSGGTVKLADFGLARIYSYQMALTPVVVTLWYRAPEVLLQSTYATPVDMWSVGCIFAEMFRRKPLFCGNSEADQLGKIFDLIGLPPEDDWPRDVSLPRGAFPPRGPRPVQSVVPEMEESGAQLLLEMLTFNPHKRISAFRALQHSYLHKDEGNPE

[14] = target: Tyrosine-protein kinase Srms (Homo sapiens) (UniProt Q9H3Y6); test: SRMS DiscoveRx kinase panel; settings: Compound concentration 1.0 uM
[15] = target: T1, GABA-A receptor; anion channel (Rattus norvegicus) (UniProt O09028+P15431+P18506+P18508+P19969+P20236+P23574+P23576+P28471+P28473+P30191+P62813+P63079+P63138+Q91ZM7+Q9ES14); settings: Compound concentration 10.0 uM
[16] = target: Dual specificity tyrosine-phosphorylation-regulated kinase 2 (Homo sapiens) (UniProt Q92630); test: DYRK2 DiscoveRx kinase panel; settings: Compound concentration 1.0 uM
Sequence of Dual specificity tyrosine-phosphorylation-regulated kinase 2 (Homo sapiens) (Q92630 whole entry): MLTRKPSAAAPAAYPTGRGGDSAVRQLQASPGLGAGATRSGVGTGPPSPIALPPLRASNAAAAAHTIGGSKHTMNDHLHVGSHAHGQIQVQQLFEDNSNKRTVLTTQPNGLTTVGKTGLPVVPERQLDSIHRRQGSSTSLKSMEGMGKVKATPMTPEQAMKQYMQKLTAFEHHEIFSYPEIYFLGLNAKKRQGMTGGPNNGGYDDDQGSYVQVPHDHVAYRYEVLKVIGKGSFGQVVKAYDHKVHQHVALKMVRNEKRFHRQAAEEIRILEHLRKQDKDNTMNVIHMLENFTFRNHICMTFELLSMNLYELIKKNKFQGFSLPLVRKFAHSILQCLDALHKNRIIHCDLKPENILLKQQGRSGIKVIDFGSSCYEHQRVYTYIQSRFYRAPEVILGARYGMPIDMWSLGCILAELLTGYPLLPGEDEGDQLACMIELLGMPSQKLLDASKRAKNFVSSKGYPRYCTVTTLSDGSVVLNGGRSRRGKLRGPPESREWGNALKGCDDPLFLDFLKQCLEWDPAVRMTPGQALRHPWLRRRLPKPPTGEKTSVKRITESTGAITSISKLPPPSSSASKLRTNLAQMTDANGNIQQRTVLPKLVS

[17] = target: Serine/threonine-protein kinase 4 (Homo sapiens) (UniProt Q13043); test: MST1 DiscoveRx kinase panel; settings: Compound concentration 1.0 uM
[18] = target: Glutamate receptor ionotropic, kainate (Rattus norvegicus) (UniProt P22756+Q01812+P42260+P42264+Q63273); test: Inhibition of Glutamate, Kainate at 10 µM in the Eurofins-Panlabs radioligand binding assay (Eurofins_assay_232700); settings: Compound concentration 10.0 uM
[19] = target: Dual serine/threonine and tyrosine protein kinase (Homo sapiens) (UniProt Q6XUX3); test: RIPK5 DiscoveRx kinase panel; settings: Compound concentration 1.0 uM
Sequence of Dual serine/threonine and tyrosine protein kinase (Homo sapiens) (Q6XUX3 whole entry): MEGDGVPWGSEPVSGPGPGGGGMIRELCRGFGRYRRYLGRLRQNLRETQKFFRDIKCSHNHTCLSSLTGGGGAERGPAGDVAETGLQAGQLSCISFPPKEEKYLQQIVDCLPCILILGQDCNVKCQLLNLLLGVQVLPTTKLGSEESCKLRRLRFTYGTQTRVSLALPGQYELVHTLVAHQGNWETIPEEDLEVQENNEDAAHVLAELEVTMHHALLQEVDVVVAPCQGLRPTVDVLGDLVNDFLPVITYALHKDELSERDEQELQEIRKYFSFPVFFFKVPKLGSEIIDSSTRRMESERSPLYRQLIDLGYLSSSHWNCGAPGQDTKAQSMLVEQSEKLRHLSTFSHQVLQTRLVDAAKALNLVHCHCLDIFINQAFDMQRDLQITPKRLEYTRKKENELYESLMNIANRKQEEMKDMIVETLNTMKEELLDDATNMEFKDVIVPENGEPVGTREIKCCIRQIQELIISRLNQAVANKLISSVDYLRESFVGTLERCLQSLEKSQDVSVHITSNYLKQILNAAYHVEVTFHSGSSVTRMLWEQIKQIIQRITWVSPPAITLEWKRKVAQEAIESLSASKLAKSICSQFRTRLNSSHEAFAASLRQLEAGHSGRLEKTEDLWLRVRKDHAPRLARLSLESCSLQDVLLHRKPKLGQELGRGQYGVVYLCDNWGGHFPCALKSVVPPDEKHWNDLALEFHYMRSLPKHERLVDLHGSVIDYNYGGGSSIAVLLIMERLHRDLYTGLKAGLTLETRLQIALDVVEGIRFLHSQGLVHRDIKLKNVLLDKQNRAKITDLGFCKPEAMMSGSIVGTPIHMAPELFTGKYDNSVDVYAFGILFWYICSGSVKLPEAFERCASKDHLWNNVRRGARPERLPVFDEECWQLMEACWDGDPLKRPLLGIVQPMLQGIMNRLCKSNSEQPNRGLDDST

[20] = target: T1, GABA-A receptor; anion channel (Rattus norvegicus); settings: Compound concentration 10.0 uM; remark: listed apart in the source
[21] = target: Mitogen-activated protein kinase kinase kinase 11 (Homo sapiens) (UniProt Q16584); test: MLK3 DiscoveRx kinase panel; settings: Compound concentration 1.0 uM
Rattus norvegicus [22] = species on record: Rattus norvegicus; test: Glutamate, NMDA, Polyamine Eurofins-Panlabs radioligand binding assay; type: protein-complex assay; design: ligand concentration 2 nM; settings: Compound concentration 10.0 uM
[23] = target: Mitogen-activated protein kinase kinase kinase 5 (Homo sapiens) (UniProt Q99683); test: ASK1 DiscoveRx kinase panel; settings: Compound concentration 1.0 uM
[24] = target: Mitotic checkpoint serine/threonine-protein kinase BUB1 (Homo sapiens, UniProt O43683); test: Abrogation of histone H2A-Thr120 phosphorylation
Sequence of Mitotic checkpoint serine/threonine-protein kinase BUB1 (O43683 whole entry): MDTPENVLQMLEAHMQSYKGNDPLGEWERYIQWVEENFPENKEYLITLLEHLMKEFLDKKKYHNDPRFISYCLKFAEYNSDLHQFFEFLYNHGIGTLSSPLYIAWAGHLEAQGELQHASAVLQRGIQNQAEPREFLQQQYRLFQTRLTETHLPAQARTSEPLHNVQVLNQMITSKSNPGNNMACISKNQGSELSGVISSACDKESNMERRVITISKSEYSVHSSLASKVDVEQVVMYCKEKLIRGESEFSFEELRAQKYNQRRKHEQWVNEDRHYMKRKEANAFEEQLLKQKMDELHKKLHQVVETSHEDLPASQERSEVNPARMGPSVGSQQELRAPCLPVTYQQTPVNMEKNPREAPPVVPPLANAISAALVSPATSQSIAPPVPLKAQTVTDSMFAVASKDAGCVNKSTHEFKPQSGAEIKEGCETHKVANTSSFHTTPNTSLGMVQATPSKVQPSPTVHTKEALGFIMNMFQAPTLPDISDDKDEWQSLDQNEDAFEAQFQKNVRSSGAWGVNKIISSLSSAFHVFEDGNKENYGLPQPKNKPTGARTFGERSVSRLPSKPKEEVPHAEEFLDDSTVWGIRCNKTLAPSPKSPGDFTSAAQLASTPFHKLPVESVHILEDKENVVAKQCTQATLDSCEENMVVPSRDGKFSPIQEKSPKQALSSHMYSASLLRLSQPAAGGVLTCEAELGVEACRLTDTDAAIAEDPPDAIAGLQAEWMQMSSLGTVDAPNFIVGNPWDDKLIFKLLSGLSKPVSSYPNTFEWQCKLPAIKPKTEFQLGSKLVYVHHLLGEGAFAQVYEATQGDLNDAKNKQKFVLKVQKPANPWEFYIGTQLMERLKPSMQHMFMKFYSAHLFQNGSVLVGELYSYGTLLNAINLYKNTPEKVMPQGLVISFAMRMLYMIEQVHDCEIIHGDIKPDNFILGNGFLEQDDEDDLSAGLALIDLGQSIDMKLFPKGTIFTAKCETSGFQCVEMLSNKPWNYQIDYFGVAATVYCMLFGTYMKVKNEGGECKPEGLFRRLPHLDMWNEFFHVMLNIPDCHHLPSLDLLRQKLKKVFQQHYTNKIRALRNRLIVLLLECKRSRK

[25] = target: Leucine-rich repeat serine/threonine-protein kinase 2 (Homo sapiens) (UniProt Q5S007); test: LRRK2 DiscoveRx kinase panel; settings: Compound concentration 1.0 uM
[26] = target: Eukaryotic translation initiation factor 2-alpha kinase 1 (Homo sapiens) (UniProt Q9BQI3); test: EIF2AK1 DiscoveRx kinase panel; settings: Compound concentration 1.0 uM
[27] = target: Calcium/calmodulin-dependent protein kinase type 1G (Homo sapiens) (UniProt Q96NX5); test: CAMK1G DiscoveRx kinase panel; settings: Compound concentration 1.0 uM
[28] = target: Tyrosine-protein kinase CSK (Homo sapiens) (UniProt P41240); test: CSK DiscoveRx kinase panel; settings: Compound concentration 1.0 uM
[29] = target: Serine/threonine-protein kinase MRCK alpha (Homo sapiens) (UniProt Q5VT25); test: MRCKA DiscoveRx kinase panel; settings: Compound concentration 1.0 uM
[30] = target: Vasopressin V1a receptor (Homo sapiens) (UniProt P37288); test: Vasopressin V1A Eurofins-Panlabs radioligand binding assay; settings: Compound concentration 10.0 uM
Sequence of Vasopressin V1a receptor (Homo sapiens) (P37288 whole entry, looked up): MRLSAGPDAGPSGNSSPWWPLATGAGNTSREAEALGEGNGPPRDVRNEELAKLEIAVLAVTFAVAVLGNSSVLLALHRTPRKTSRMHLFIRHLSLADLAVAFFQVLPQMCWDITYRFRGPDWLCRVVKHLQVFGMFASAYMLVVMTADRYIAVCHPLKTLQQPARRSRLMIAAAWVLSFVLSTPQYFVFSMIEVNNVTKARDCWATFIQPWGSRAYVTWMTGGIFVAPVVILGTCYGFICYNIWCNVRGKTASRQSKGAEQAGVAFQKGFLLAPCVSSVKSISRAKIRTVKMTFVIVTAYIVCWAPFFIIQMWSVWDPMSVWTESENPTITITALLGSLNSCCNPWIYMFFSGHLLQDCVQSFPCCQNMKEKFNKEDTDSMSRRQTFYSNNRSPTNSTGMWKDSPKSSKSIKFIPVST

[31] = target: Serine/threonine-protein kinase DCLK2 (Homo sapiens) (UniProt Q8N568); test: DCAMKL2 DiscoveRx kinase panel; settings: Compound concentration 1.0 uM
[32] = target: Serine/threonine-protein kinase PLK1 (Homo sapiens) (UniProt P53350); test: PLK1 DiscoveRx kinase panel; settings: Compound concentration 1.0 uM
Sequence of Serine/threonine-protein kinase PLK1 (Homo sapiens) (P53350 whole entry): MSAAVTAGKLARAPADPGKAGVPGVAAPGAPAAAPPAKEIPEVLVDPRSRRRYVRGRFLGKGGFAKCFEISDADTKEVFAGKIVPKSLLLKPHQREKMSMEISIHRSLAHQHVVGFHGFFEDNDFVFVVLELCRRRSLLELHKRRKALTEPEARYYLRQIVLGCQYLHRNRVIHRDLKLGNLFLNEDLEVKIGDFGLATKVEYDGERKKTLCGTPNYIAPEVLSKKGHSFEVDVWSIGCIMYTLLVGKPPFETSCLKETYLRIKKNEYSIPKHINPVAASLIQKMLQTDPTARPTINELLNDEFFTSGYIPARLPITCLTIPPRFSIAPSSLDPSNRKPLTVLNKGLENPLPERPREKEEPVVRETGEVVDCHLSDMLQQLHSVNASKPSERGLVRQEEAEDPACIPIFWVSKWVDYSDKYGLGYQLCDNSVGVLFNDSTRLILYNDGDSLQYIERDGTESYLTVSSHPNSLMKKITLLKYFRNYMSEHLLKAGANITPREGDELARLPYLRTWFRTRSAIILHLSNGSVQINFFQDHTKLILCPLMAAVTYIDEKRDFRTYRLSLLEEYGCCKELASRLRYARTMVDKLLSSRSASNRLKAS

[33] = target: STE20/SPS1-related proline-alanine-rich protein kinase (Homo sapiens) (UniProt Q9UEW8); test: STK39 DiscoveRx kinase panel; settings: Compound concentration 1.0 uM
[34] = target: Mitogen-activated protein kinase kinase kinase 6 (Homo sapiens) (UniProt O95382); test: ASK2 DiscoveRx kinase panel; settings: Compound concentration 1.0 uM
[35] = target: Serine/threonine-protein kinase BRSK2 (Homo sapiens) (UniProt Q8IWQ3); test: BRSK2 DiscoveRx kinase panel; settings: Compound concentration 1.0 uM
[36] = target: Alpha-1D adrenergic receptor (Homo sapiens, UniProt P25100); test: GPCRScan assay: inhibition of Alpha1D; design: radioligand conc. used [nm] 0.3 – 1.0, parental cells stable
Sequence of Alpha-1D adrenergic receptor (P25100 whole entry): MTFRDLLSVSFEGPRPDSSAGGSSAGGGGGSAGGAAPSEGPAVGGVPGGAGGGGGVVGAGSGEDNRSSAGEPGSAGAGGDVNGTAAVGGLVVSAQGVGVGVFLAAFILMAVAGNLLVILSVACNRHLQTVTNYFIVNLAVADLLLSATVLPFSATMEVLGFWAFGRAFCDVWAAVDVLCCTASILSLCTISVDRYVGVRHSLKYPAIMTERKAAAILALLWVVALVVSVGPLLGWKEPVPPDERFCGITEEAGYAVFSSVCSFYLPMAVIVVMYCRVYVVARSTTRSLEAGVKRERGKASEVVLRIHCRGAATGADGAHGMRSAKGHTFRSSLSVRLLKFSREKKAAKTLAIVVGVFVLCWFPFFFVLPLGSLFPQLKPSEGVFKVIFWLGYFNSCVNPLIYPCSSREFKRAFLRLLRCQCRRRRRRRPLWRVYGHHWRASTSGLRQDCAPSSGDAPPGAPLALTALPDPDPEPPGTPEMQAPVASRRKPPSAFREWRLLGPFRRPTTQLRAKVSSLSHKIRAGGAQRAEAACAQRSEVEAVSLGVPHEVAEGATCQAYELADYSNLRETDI

[37] = target: Serine/threonine-protein kinase 16 (Homo sapiens) (UniProt O75716); test: STK16 DiscoveRx kinase panel; settings: Compound concentration 1.0 uM
[38] = target: Receptor tyrosine-protein kinase erbB-3 (Homo sapiens) (UniProt P21860); test: ERBB3 DiscoveRx kinase panel; settings: Compound concentration 1.0 uM
[39] = target: Casein kinase II subunit alpha' (Homo sapiens) (UniProt P19784); test: CSNK2A2 DiscoveRx kinase panel; settings: Compound concentration 1.0 uM
[40] = target: Interleukin-1 receptor-associated kinase 1 (Homo sapiens) (UniProt P51617); test: IRAK1 DiscoveRx kinase panel; settings: Compound concentration 1.0 uM
[41] = target: Serine/threonine-protein kinase/endoribonuclease IRE1 (Homo sapiens) (UniProt O75460); test: ERN1 DiscoveRx kinase panel; settings: Compound concentration 1.0 uM
[42] = target: Calcium/calmodulin-dependent protein kinase type IV (Homo sapiens) (UniProt Q16566); test: CAMK4 DiscoveRx kinase panel; settings: Compound concentration 1.0 uM
[43] = target: LIM domain kinase 1 (Homo sapiens) (UniProt P53667); test: LIMK1 DiscoveRx kinase panel; settings: Compound concentration 1.0 uM
[44] = target: Activin receptor type-1B (Homo sapiens) (UniProt P36896); test: ACVR1B DiscoveRx kinase panel; settings: Compound concentration 1.0 uM
[45] = target: Sodium-dependent dopamine transporter (Homo sapiens, UniProt Q01959); settings: Compound concentration 10.0 uM
[46] = target: Proto-oncogene tyrosine-protein kinase Src (Homo sapiens) (UniProt P12931); test: SRC DiscoveRx kinase panel; settings: Compound concentration 1.0 uM

Compound: COc1cnccc1Nc1nc(-c2nn(Cc3c(F)cc(OCCO)cc3F)c3ccccc23)ncc1OC
- residual activity [1]: 79%
- residual activity [2]: 93%
- inhibition (Rattus norvegicus [3]): 1%
- inhibition [4]: 15%
- residual activity [5]: 100%
- residual activity [6]: 100%
- residual activity [7]: 74%
- inhibition [8]: -5%
- residual activity [9]: 69%
- residual activity [10]: 98%
- residual activity [11]: 100%
- residual activity [12]: 52%
- residual activity [13]: 100%
- residual activity [14]: 100%
- inhibition [15]: 60%
- residual activity [16]: 100%
- residual activity [17]: 100%
- inhibition [18]: -1%
- residual activity [19]: 100%
- inhibition [20]: 24.9%
- residual activity [21]: 100%
- inhibition (Rattus norvegicus [22]): 0%
- residual activity [23]: 95%
- IC50 [24]: 0.029 µM (active)
- residual activity [25]: 100%
- residual activity [26]: 87%
- residual activity [27]: 99%
- residual activity [28]: 77%
- residual activity [29]: 72%
- inhibition [30]: 11%
- residual activity [31]: 90%
- residual activity [32]: 98%
- residual activity [33]: 97%
- residual activity [34]: 82%
- residual activity [35]: 83%
- Ki [36]: > 10 µM
- pKi [36]: < 5
- residual activity [37]: 65%
- residual activity [38]: 70%
- residual activity [39]: 48%
- residual activity [40]: 100%
- residual activity [41]: 100%
- residual activity [42]: 68%
- residual activity [43]: 86%
- residual activity [44]: 72%
- inhibition [45]: -5%
- residual activity [46]: 100%
